Square brackets hold non-standard residues; d marks the D form. Peptide text beside a SMILES is read from it. * marks the point of attachment. Ala(1H-tetrazol-5-yl) = N[C@@H](Cc1nnn[nH]1)C(=O)O; Ms = CS(=O)(=O)*

This data set in a line: Peptide stability tests 2 and 3: Tris buffer pH 7.0, stored at 60° C., HPLC conditions 2. It counts as physicochemical. The conditions noted are these: Tris buffer pH 7.0, 60° C. The protocol: (§1) Peptides 1, 2 and 6 to 9 synthesized in Example 2 were weighed and dissolved in Tris buffer (pH 7.0) to prepare 1.0 mM peptide solutions. The solutions were filtered with a Chromatdisk (product of Merck Millipore, Millex-GV, 0.22 μm). Each filtrate was diluted to 100 μM with Tris buffer (pH 7.0) and dispensed into a tube (Protein LoBind Tube by Eppendorf Co.). The prepared peptide solutions were incubated for 1 week or 2 weeks in a 60° C. thermostatic bath to obtain stored samples. A simultaneously prepared sample among the peptide solutions that was not stored was used as a standard sample (initial sample). The standard sample and the stored samples were stored at −30° C. until sample analysis.
Each stored sample was measured under the following HPLC analysis conditions 2, and the survival rate after correction for water for each peptide among the stored samples was calculated in the same manner as Example 3.
Column: XSelect CSH C18 by Waters Co., 5 μm, 4.6×250 mm
Guard column: XSelect CSH C18 by Waters. Co., 5 μm, 4.6×20 mm Guard Cartridge
Detection wavelength: 220 nm
Mobile phase A: 0.1% formic acid in water
Mobile phase B: 0.1% formic acid in acetonitrile
Measuring time: 20 minutes
Measuring sample injection rate: 50 μL
Column temperature: 40° C.
Mobile phase delivery: The mixing ratio of mobile phase A and mobile phase B was varied as shown in Table 5 for linear concentration gradient control.
as §1, with “Peptides 12 to 25, 27” for “Peptides 1, 2”, “and 28” for “and 6 to 9”, “for one” for “for 1”
The survival rate after correction for water for each peptide among the stored samples was calculated in the same manner as Example 4, and the results are shown in Table 7.
as §1, with “29” for “1, 2 and 6”, “34” for “9”, “for” for “for 1 week or”
The survival rate after correction for water for each peptide among the stored samples was calculated in the same manner as Example 4, and the results are shown in Table 7-2.

Regarding `CC[C@H](C)[C@H](NC(=O)CNC(=O)[C@H](CC(=O)O)NC(=O)[C@H](CO)NC(=O)[C@H](Cc1cnc[nH]1)NC(C)=O)C(=O)N[C@@H](Cc1ccccc1)C(=O)N[C@H](C(=O)N[C@@H](CC(=O)O)C(=O)N[C@@H](CO)C(=O)N[C@@H](Cc1ccc(O)cc1)C(=O)N[C@@H](CO)C(=O)N[C@@H](CCCNC(=N)N)C(=O)N[C@@H](Cc1ccc(O)cc1)C(=O)N[C@@H](CCCNC(=N)N)C(=O)N[C@@H](CCCCN)C(=O)N[C@@H](CCC(N)=O)C(=O)N[C@@H](CCSC)C(=O)N[C@@H](C)C(=O)N[C@H](C(=O)N[C@@H](CCCCN)C(=O)N[C@@H](CCCCN)C(=O)N[C@@H](Cc1ccc(O)cc1)C(=O)N[C@@H](CC(C)C)C(=O)N[C@@H](C)C(=O)N[C@@H](C)C(=O)N[C@H](C(=O)N[C@@H](CC(C)C)C(N)=O)C(C)C)C(C)C)[C@@H](C)O` [Peptide 2, reference compound], the “stability in aqueous solution, in words” value is listed as “only equivalent stability”. Moreover, the “survival rate after correction for water, 60° C., 1-week storage” value (shortened to “survival rate … 1-week storage”) (100 μM peptide) is reported as 28.7%. Further, for the setting “100 μM peptide, 2 weeks”, the “survival rate after correction for water, 60° C., 2-week storage” value is recorded as 17.2%.
Molecule `CC[C@H](C)[C@H](NC(=O)[C@H](C)NC(=O)[C@H](Cc1nnn[nH]1)NC(=O)[C@H](CO)NC(=O)[C@H](Cc1c[nH]cn1)NS(C)(=O)=O)C(=O)N[C@@H](Cc1ccccc1)C(=O)N[C@H](C(=O)N[C@@H](Cc1nnn[nH]1)C(=O)N[C@@H](CO)C(=O)N[C@@H](Cc1ccc(O)cc1)C(=O)N[C@@H](CO)C(=O)N[C@@H](CCCNC(=N)N)C(=O)N[C@@H](Cc1ccc(O)cc1)C(=O)N[C@@H](CCCNC(=N)N)C(=O)N[C@@H](CCCCN)C(=O)N[C@@H](CCC(N)=O)C(=O)N[C@@H](C)C(=O)N[C@@H](C)C(=O)N[C@H](C(=O)N[C@@H](CCCCN)C(=O)N[C@@H](CCCCN)C(=O)N[C@@H](Cc1ccc(O)cc1)C(=O)N[C@@H](CC(C)C)C(=O)N[C@@H](C)C(=O)N[C@@H](C)C(=O)N[C@H](C(=O)N[C@@H](CC(C)C)C(N)=O)C(C)C)C(C)C)[C@@H](C)O` [Peptide 31] (Ms-HS[Ala(1H-tetrazol-5-yl)]AIFT[Ala(1H-tetrazol-5-yl)]SYSRYRKQAAVKKYLAAVL-NH2) came in with a survival rate after correction for water, 60° C., 2-week storage (Table 7-2) (100 μM peptide, 2 weeks) of 90.1%.
As to `CC[C@H](C)[C@H](NC(=O)CNC(=O)[C@H](Cc1nnn[nH]1)NC(=O)[C@H](CO)NC(=O)[C@H](Cc1c[nH]cn1)NC(C)=O)C(=O)N[C@@H](Cc1ccccc1)C(=O)N[C@H](C(=O)N[C@@H](Cc1nnn[nH]1)C(=O)N[C@@H](C)C(=O)N[C@@H](Cc1ccc(O)cc1)C(=O)N[C@@H](CO)C(=O)N[C@@H](CCCNC(=N)N)C(=O)N[C@@H](Cc1ccc(O)cc1)C(=O)N[C@@H](CCCNC(=N)N)C(=O)N[C@@H](CCCCN)C(=O)N[C@@H](CCC(N)=O)C(=O)N[C@@H](CC(C)C)C(=O)N[C@@H](C)C(=O)N[C@H](C(=O)N[C@@H](CCCCN)C(=O)N[C@@H](CCCCN)C(=O)N[C@@H](Cc1ccc(O)cc1)C(=O)N[C@@H](CC(C)C)C(=O)N[C@@H](C)C(=O)N[C@@H](C)C(=O)N[C@H](C(=O)N[C@@H](CC(C)C)C(N)=O)C(C)C)C(C)C)[C@@H](C)O` [Peptide 15] (Ac-HS[Ala(1H-tetrazol-5-yl)]GIFT[Ala(1H-tetrazol-5-yl)]AYSRYRKQLAVKKYLAAVL-NH2), the “survival rate … 1-week storage” value (100 μM peptide) is listed as 97.3%. For the same molecule, the “survival rate after correction for water, 60° C., 2-week storage” value (100 μM peptide, 2 weeks) turned out to be 94.9%.
`CC[C@H](C)[C@H](NC(=O)CNC(=O)[C@H](Cc1nnn[nH]1)NC(=O)[C@H](CO)NC(=O)[C@H](Cc1c[nH]cn1)NC(C)=O)C(=O)N[C@@H](Cc1ccccc1)C(=O)N[C@H](C(=O)N[C@@H](Cc1nnn[nH]1)C(=O)N[C@@H](C)C(=O)N[C@@H](Cc1ccc(O)cc1)C(=O)N[C@@H](CO)C(=O)N[C@@H](CCCNC(=N)N)C(=O)N[C@@H](Cc1ccc(O)cc1)C(=O)N[C@@H](CCCNC(=N)N)C(=O)N[C@@H](CCCCN)C(=O)N[C@@H](CCC(N)=O)C(=O)N[C@@H](C)C(=O)N[C@@H](C)C(=O)N[C@H](C(=O)N[C@@H](CCCCN)C(=O)N[C@@H](CCCCN)C(=O)N[C@@H](Cc1ccc(O)cc1)C(=O)N[C@@H](CC(C)C)C(=O)N[C@@H](C)C(=O)N[C@@H](C)C(=O)N[C@H](C(=O)N[C@@H](CC(C)C)C(N)=O)C(C)C)C(C)C)[C@@H](C)O` [Peptide 27] (Ac-HS[Ala(1H-tetrazol-5-yl)]GIFT[Ala(1H-tetrazol-5-yl)]AYSRYRKQAAVKKYLAAVL-NH2): for the setting “100 μM peptide”, the “survival rate … 1-week storage” value was 96.4%. Also, the “survival rate after correction for water, 60° C., 2-week storage” value (100 μM peptide, 2 weeks) came out at 93.5%.
The matching figures for `CC[C@H](C)[C@H](NC(=O)CNC(=O)[C@H](Cc1nnn[nH]1)NC(=O)[C@H](C)NC(=O)[C@H](Cc1c[nH]cn1)NC(C)=O)C(=O)N[C@@H](Cc1ccccc1)C(=O)N[C@H](C(=O)N[C@@H](Cc1nnn[nH]1)C(=O)N[C@@H](CO)C(=O)N[C@@H](Cc1ccc(O)cc1)C(=O)N[C@@H](CO)C(=O)N[C@@H](CCCNC(=N)N)C(=O)N[C@@H](Cc1ccc(O)cc1)C(=O)N[C@@H](CCCNC(=N)N)C(=O)N[C@@H](CCCCN)C(=O)N[C@@H](CCC(N)=O)C(=O)N[C@@H](CC(C)C)C(=O)N[C@@H](C)C(=O)N[C@H](C(=O)N[C@@H](CCCCN)C(=O)N[C@@H](CCCCN)C(=O)N[C@@H](Cc1ccc(O)cc1)C(=O)N[C@@H](CC(C)C)C(=O)N[C@@H](C)C(=O)N[C@@H](C)C(=O)N[C@H](C(=O)N[C@@H](CC(C)C)C(N)=O)C(C)C)C(C)C)[C@@H](C)O` [Peptide 14] (Ac-HA[Ala(1H-tetrazol-5-yl)]GIFT[Ala(1H-tetrazol-5-yl)]SYSRYRKQLAVKKYLAAVL-NH2): 96.7% and 94.5%.
The matching figures for `CC[C@H](C)[C@H](NC(=O)CNC(=O)[C@H](Cc1nnn[nH]1)NC(=O)[C@H](CO)NC(=O)[C@H](Cc1c[nH]cn1)NC(C)=O)C(=O)N[C@@H](Cc1ccccc1)C(=O)N[C@H](C(=O)N[C@@H](Cc1nnn[nH]1)C(=O)N[C@@H](CO)C(=O)N[C@@H](Cc1ccc(O)cc1)C(=O)N[C@@H](CO)C(=O)N[C@@H](CCCNC(=N)N)C(=O)N[C@@H](Cc1ccc(O)cc1)C(=O)N[C@@H](CCCNC(=N)N)C(=O)N[C@@H](CCCCN)C(=O)N[C@@H](CCC(N)=O)C(=O)N[C@@H](CC(C)C)C(=O)N[C@@H](C)C(=O)N[C@@H](C)C(=O)N[C@@H](CCCCN)C(=O)N[C@@H](CCCCN)C(=O)N[C@@H](Cc1ccc(O)cc1)C(=O)N[C@@H](CC(C)C)C(=O)N[C@@H](C)C(=O)N[C@@H](C)C(=O)N[C@H](C(=O)N[C@@H](CC(C)C)C(N)=O)C(C)C)[C@@H](C)O` [Peptide 19] (Ac-HS[Ala(1H-tetrazol-5-yl)]GIFT[Ala(1H-tetrazol-5-yl)]SYSRYRKQLAAKKYLAAVL-NH2): 95.8% and 92.7%.
Regarding `CC[C@H](C)[C@H](NC(=O)CNC(=O)[C@H](Cc1nnn[nH]1)NC(=O)[C@H](CO)NC(=O)[C@H](Cc1c[nH]cn1)NC(C)=O)C(=O)N[C@@H](Cc1ccccc1)C(=O)N[C@H](C(=O)N[C@@H](Cc1nnn[nH]1)C(=O)N[C@@H](CO)C(=O)N[C@@H](Cc1ccc(O)cc1)C(=O)N[C@@H](CO)C(=O)N[C@@H](CCCNC(=N)N)C(=O)N[C@@H](Cc1ccc(O)cc1)C(=O)N[C@@H](CCCNC(=N)N)C(=O)N[C@@H](CCCCN)C(=O)N[C@@H](CCC(N)=O)C(=O)N[C@@H](CC(C)C)C(=O)N[C@@H](C)C(=O)N[C@H](C(=O)N[C@@H](CCCCN)C(=O)N[C@@H](CCCCN)C(=O)N[C@@H](Cc1ccc(O)cc1)C(=O)N[C@@H](CC(C)C)C(=O)N[C@@H](C)C(=O)N[C@@H](C)C(=O)N[C@H](C(=O)N[C@@H](CC(C)C)C(N)=O)C(C)C)C(C)C)[C@@H](C)O` [Peptide 9] (Ac-HS[Ala(1H-tetrazol-5-yl)]GIFT[Ala(1H-tetrazol-5-yl)]SYSRYRKQLAVKKYLAAVL-NH2), the “stability in aqueous solution, in words” value is “further increased stability”. The “survival rate … 1-week storage” value (100 μM peptide) came out at 98.4%. Where the note is “100 μM peptide, 2 weeks”, the “survival rate after correction for water, 60° C., 2-week storage” value is given as 92.8%.

The values above are taken from patent publication US12304932B2, “PACAP stabilized peptide” (SENJU PHARMACEUTICAL CO., LTD., priority 2017, dated 2025).
